This note sets out measurements from patent US20240263146A1, “HUMAN NSCLC CELL LINES AND USES THEREOF” (SHANGHAI LIDE BIOTECH CO., LTD., priority 2020, published 2024).

Assay in all cases: cells
Assay [1] relates to LD1-0025-200717 (EGFR 19del, T790M & C797S mutant) cell line. The settings on record: Homo sapiens, LD1-0025-200717, 144 h. As for the experimental part: (§1) The cell lines of the present disclosure (i.e., LD1-0025-200636; LD1-0025-200694; LD1-0006-215676; and LD1-0025-200717) were seeded at 2×10^2 cells/well to 96 well round bottom ultra low attachment plate. The drugs were added into the cell lines and the cells were cultured in 37° C. and 5% CO2 for 6 days. The ATP amount was measured using CellTiter-Glo. The Inhibition rate corresponding to the concentration of the drugs was calculated. The equation for calculating the inhibition rate is as follows: […]
(§2) Inhibition curve was graphed by XLfit(IDBS) and IC50 was calculated.

Assay [2] relates to LD1-0006-215676 (EGFR L858R/T790M) cell line. The conditions noted are these: Homo sapiens, 144 h. As for the experimental part:
as §1, §2

Assay [3] deals with LD1-0025-200636 (EGFR WT) cell line. The settings on record: Homo sapiens, 144 h. As for the experimental part: as §1, §2
In assay [4] the test system is LD1-0025-200694 (EGFR L858R) cell line. The conditions noted are these: Homo sapiens, 144 h. As for the experimental part: as §1, §2

With `C=CC(=O)Nc1cc(Nc2nccc(-c3cn(C)c4ccccc34)n2)c(OC)cc1N(C)CCN(C)C` [AZD9291, Osimertinib], the IC50 (usually the concentration that gives 50% inhibition) in assay [1] came out at 2010 nM; in assay [2] it was 30 nM; in assay [3], 2520 nM; in assay [4], 2670 nM.
